Results from US10517851B2, “Vasopressin-like action enhancer” (KYORIN PHARMACEUTICAL CO., LTD., priority 2015, dated 2019).

How the values were obtained:
female rats [1] = experiment: Antidiuretic action in water-loaded rats, urine collected for 2 hours (single agent); format: in vivo, rat; details: oral water load 25 mL/kg, FIG. 1 / FIG. 2; for antidiuretic action: intravenous dose series; for reduction of the urinary volume at the maximum: intravenous
Method: A method according to Watanabe et al. (Watanabe et al 2013 Antidiuretic effect of antimuscanrinic agents in rat model depends on C-fibre afferent nerves in the bladder. BJU Int 112(1) 131-6) was carried out with a partial modification. Female rats (10 to 11-week-old, obtained from Charles River Laboratories Japan) were intravenously administered (1 mL/kg) with a vehicle (saline) or imidafenacin ([…]) and subjected to an oral water load (25 mL/kg). After the rats were transferred to Bollmann cages, urine was collected for 2 hours from each rat via a catheter previously inserted and fixed to the bladder apex of the rat (8 rats in each group). The method according to Watanabe et al. (Watanabe et al 2013 Antidiuretic effect of antimuscanrinic agents in rat model depends on C-fibre afferent nerves in the bladder. BJU Int 112(1) 131-6) was carried out with a partial modification. Female rats (10 to 11-week-old, obtained from Charles River Laboratories Japan) were intravenously administered (1 mL/kg) with a vehicle (saline) or desmopressin ([…]) and subjected to an oral water load (25 mL/kg). After the rats were transferred to Bollmann cages, urine was collected for 2 hours from each rat via a catheter previously inserted and fixed to the bladder apex of the rat (8 rats in each group).

female rats [2] = experiment: Effect of mozavaptan (V2 antagonist) on antidiuretic action in water-loaded rats; format: in vivo, rat
Method: The method according to Watanabe et al. (Watanabe et al 2013 Antidiuretic effect of antimuscanrinic agents in rat model depends on C-fibre afferent nerves in the bladder. BJU Int 112(1) 131-6) was carried out with a partial modification. Female rats (10 to 11-week-old, obtained from Charles River Laboratories Japan) were intravenously administered with a vehicle (dimethylformamide or saline); mozavaptan (a dose of 0.1 mL/kg of a 30 mg/mL solution); 3 mg/kg of mozavaptan and imidafenacin (10 μg/kg or 300 μg/kg); 3 mg/kg of mozavaptan and desmopressin (0.003 μg/kg or 0.1 μg/kg); or 3 mg/kg of mozavaptan, imidafenacin (10 μg/kg or 300 μg/kg) and desmopressin (0.003 μg/kg or 0.1 μg/kg), and subjected to an oral water load (25 mL/kg). After the rats were transferred to Bollmann cages, urine was collected for 2 hours from each rat via a catheter previously inserted and fixed to the bladder apex of the rat (8 rats in each group).

vasopressin = details: rat; previous report BJU Int 112(1) 131-6; cited from earlier work

Row | SMILES | antidiuretic action (female rats [1]) | reduction of the urinary volume at the maximum (female rats [1]) | antidiuretic action of desmopressin at the maximum reaction dose in the presence of mozavaptan (female rats [2]; desmopressin 0.1 μg/kg with 3 mg/kg of mozavaptan, intravenous, FIG. 4) | antidiuretic action of desmopressin in the presence of mozavaptan (female rats [2]; desmopressin with 3 mg/kg of mozavaptan, intravenous, FIG. 4) | antidiuretic action on addition of imidafenacin to the mozavaptan and desmopressin group (female rats [2]; imidafenacin 300 μg/kg added to 3 mg/kg mozavaptan and 0.1 μg/kg desmopressin, FIG. 5) | antidiuretic action of imidafenacin in the presence of mozavaptan (female rats [2]; imidafenacin at the maximum reaction dose of 300 μg/kg with 3 mg/kg of mozavaptan, intravenous, FIG. 4) | release of vasopressin (vasopressin)
1 | NC(=O)CC[C@@H]1NC(=O)[C@H](Cc2ccccc2)NC(=O)[C@H](Cc2ccc(O)cc2)NC(=O)CCSSC[C@@H](C(=O)N2CCC[C@H]2C(=O)N[C@H](CCCN=C(N)N)C(=O)NCC(N)=O)NC(=O)[C@H](CC(N)=O)NC1=O [desmopressin] | dose-dependent manner | about 100% | recovered | also suppressed |  |  | 
2 | Cc1nccn1CCC(C(N)=O)(c1ccccc1)c1ccccc1 [imidafenacin] | dose-dependent manner | about 50% |  |  | further enhanced | completely suppressed | not affected
